The source of these data is ChEMBL document CHEMBL1151105, “Antitumor principles in mosses: the first isolation and identification of maytansinoids, including a novel 15-methoxyansamitocin P-3” (J Nat Prod, 1988).

Calls of active or inactive are those of the source. The rule behind the calls is not given here.

In the test the test system is P388. The test is described as follows: Cytotoxicity against mouse P388 cells after 48 hrs. Type of test: functional, cell-based.
Regarding `COc1cc2cc(c1Cl)N(C)C(=O)C[C@H](OC(=O)C(C)N(C)C(=O)C(C)C)[C@]1(C)O[C@H]1[C@H](C)[C@@H]1C[C@@](O)(NC(=O)O1)[C@H](OC)/C=C/C=C(\C)C2OC` (some centres undefined), the outcome was Active. As to `COc1cc2cc(c1Cl)N(C)C(=O)C[C@H](OC(=O)C(C)N(C)C(=O)C(C)C)[C@]1(C)O[C@H]1[C@H](C)[C@@H]1C[C@@](O)(NC(=O)O1)[C@H](OC)/C=C/C=C(\C)C2` (some centres undefined), the outcome was Active.

In the case of `COc1cc2cc(c1Cl)N(C)C(=O)C[C@H](OC(=O)C(C)C)[C@]1(C)O[C@H]1[C@H](C)[C@@H]1C[C@@](O)(NC(=O)O1)[C@H](OC)/C=C/C=C(\C)C2`, the result was Active. In the case of `COc1cc2cc(c1Cl)N(C)C(=O)C[C@H](OC(=O)C(C)C)[C@]1(C)O[C@H]1[C@H](C)[C@@H]1C[C@@](O)(NC(=O)O1)[C@H](OC)/C=C/C=C(\C)C2OC` (some centres undefined), the result was Active.
